Assay results as given in patent publication EP4692083A1, “NOVEL AZABICYCLE DERIVATIVES AND PHARMACEUTICAL COMPOSITION FOR INHIBITING AUTOTAXIN, COMPRISING SAME” (Nextgen Bioscience Co., Ltd., priority 2023, dated 2024).

Biological target: human Autotaxin protein (Homo sapiens, UniProt Q13822)
Test: Evaluation of the inhibitory activity against human Autotaxin protein (18:1 LysoPC substrate, choline assay kit, absorbance at 570 nm)
Assay type: biochemical
Details: at 500nM compound, 2 hours at 37 °C, read-out: Inhibition rate (%, at 500nM)
Protocol: Solutions of each synthesized compound (80 uM, 100% dimethyl sulfoxide) were sequentially diluted 5-fold with dimethyl sulfoxide to prepare 6 concentrations. Each concentration of the compound was diluted 2-fold with 1x test buffer (50 mM Tris-Cl (pH 8.0), 5 mM KCl, 1 mM CaCl2, 1 mM MgCl2, 140 mM NaCl, deionized water, 1 mg/mL BSA), and 1 uL (1.25% dimethylsulfoxide) of the diluted mixture was dispensed into each well of a 96-well clear round-bottom plate. 9 uL of 1x test buffer was added, and 20 uL of 240 nM human autotaxin protein (buffer: 50 mM Tris-HCl, pH 8.0, with 150 mM sodium chloride and 20% glycerol) was added. 10 uL of sonicated 360 uM 18:1 LysoPC (diluted with 1x assay buffer) was added. The reaction was performed for 2 hours in a shaking incubator at 37 °C, and a secondary reaction mixture (choline assay kit, KA1662) (65 uL of 1x assay buffer: 1 uL of choline oxidase: 1 uL of dye probe) was prepared. 60 uL of the secondary reaction mixture was added to the plate where the reaction was performed, and incubated for 30 minutes in a shaker. The absorbance value was measured at a wavelength of 570 nm using a SpectraMax iD3 microplate reader. The percentage inhibition activity value (% inhibition) was calculated by the formula: (1 - absorbance value test group / absorbance value control group) X 100.

**Q.** With `O=C(O)C[C@@H]1[C@H]2CN(c3nnc(-c4cnc(NCCc5ccc(Cl)cc5)nc4)o3)C[C@@H]12` [Example 51, 2-((1R,5S,6s)-3-(5-(2-((4-Chlorophenethyl)amino)pyrimidin-5-yl)-1,3,4-oxadiazol-2-yl)-3-azabicyclo[3.1.0]hexan-6-yl)acetic acid] as the molecule, how does the inhibition at 0.5 µM read?
**A.** Its inhibition at 0.5 µM is 3.5%.
